Here are results for 45 compounds from ChEMBL document CHEMBL4813918, “From off-to on-target: New BRAF-inhibitor-template-derived compounds selectively targeting mitogen activated protein kinase kinase 4 (MKK4)” (Eur J Med Chem, 2021).

Test [1] addresses T1, Dual specificity mitogen-activated protein kinase kinase 7 (Homo sapiens) (UniProt O14733).
T1 sequence (whole entry): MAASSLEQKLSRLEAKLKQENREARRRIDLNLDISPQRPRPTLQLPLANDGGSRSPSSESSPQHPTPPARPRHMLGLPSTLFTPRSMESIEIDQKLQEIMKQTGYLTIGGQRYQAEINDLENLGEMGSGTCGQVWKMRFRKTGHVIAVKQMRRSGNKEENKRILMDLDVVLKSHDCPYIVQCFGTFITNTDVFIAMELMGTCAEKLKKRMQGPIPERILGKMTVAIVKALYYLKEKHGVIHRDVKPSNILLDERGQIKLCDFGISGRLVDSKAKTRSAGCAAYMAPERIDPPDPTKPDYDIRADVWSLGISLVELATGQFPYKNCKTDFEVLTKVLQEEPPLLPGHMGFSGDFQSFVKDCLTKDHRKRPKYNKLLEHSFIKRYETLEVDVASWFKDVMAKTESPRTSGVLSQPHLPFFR
Kind of test: Binding affinity to wild type full length human MKK7 (M1 to R419 residues) expressed in mammalian expression system assessed as residual activity at 100 nM measured by Kinomescan assay.

In test [2] the target is Mitogen-activated protein kinase kinase kinase 20 (Homo sapiens) (UniProt Q9NYL2). Put plainly: Binding affinity to wild type partial length human ZAK (M1 to L331) expressed in bacterial expression system assessed as residual activity at 100 nM measured by Kinomescan assay.
Chain of Mitogen-activated protein kinase kinase kinase 20 (Homo sapiens) (Q9NYL2 2-800 limits assumed): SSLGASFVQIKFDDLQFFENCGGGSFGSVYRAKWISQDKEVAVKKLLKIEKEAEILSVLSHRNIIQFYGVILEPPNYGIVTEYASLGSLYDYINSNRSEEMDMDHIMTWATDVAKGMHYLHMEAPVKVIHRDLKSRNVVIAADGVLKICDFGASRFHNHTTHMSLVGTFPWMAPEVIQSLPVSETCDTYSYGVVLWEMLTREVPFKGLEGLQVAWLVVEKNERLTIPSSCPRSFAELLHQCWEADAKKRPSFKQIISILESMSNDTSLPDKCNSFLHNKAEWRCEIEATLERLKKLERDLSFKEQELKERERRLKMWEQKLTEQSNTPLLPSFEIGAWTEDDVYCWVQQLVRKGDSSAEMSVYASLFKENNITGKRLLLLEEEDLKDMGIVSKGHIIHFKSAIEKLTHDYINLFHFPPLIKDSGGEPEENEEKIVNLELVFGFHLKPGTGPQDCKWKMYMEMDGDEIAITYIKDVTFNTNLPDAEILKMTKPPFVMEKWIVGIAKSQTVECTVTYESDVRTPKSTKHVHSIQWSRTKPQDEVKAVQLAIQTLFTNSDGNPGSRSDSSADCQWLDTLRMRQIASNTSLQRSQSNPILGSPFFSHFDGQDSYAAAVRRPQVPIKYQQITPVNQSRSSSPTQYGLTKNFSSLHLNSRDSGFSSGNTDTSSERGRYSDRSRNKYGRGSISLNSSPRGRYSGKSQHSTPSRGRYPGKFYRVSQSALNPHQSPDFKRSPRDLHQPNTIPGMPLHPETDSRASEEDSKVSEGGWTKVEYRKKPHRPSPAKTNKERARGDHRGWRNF
The target of test [3] is Mitogen-activated protein kinase kinase kinase kinase 5 (Homo sapiens) (UniProt Q9Y4K4). Put plainly: Binding affinity to wild type partial length human MAP4K5 (M1 to P297) expressed in Bacterial expression system assessed as residual activity at 100 nM measured by Kinomescan assay relative to control.
Chain of Mitogen-activated protein kinase kinase kinase kinase 5 (Homo sapiens) (Q9Y4K4 whole entry, looked up): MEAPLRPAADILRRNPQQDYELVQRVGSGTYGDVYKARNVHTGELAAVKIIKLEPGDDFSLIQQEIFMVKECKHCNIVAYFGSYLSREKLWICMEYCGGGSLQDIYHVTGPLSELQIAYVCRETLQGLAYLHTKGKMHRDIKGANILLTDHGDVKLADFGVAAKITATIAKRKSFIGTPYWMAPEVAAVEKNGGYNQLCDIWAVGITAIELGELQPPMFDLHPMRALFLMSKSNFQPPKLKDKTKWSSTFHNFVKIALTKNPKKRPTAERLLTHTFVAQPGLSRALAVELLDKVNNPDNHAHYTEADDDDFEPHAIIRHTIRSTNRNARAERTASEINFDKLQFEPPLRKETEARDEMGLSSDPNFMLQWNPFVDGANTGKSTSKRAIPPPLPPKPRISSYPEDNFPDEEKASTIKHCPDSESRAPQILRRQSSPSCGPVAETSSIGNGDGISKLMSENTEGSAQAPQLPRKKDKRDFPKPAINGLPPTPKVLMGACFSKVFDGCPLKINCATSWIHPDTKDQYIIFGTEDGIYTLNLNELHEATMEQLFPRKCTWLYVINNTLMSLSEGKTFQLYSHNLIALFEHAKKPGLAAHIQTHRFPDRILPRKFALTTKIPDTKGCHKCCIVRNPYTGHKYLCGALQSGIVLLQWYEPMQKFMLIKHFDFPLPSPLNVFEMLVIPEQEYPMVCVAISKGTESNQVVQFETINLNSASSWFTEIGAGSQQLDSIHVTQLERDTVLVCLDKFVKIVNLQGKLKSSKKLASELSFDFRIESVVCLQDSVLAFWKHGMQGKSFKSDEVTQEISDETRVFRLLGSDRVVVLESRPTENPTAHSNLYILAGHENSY

Structures are written as SMILES.

Consider `CCCS(=O)(=O)Nc1ccc(F)c(C(=O)c2c[nH]c3ncc(-c4ccc(OC)cc4F)cc23)c1F`, for which the Activity stood at 85% in test [1] and 6% in test [2].
For the compound `Oc1ccc(-c2ncnc3[nH]c4ccc(O)cc4c23)cc1`, the Activity is 92% in test [3], 100% in test [1] and 84% in test [2].
As to `CCCS(=O)(=O)Nc1cccc(C(=O)c2c[nH]c3ncc(-c4ccc(Cl)cc4)cc23)c1C`, the figures for the Activity in test [3] and in test [1] were 40% and 91%, respectively.
Consider `CCCS(=O)(=O)Nc1ccc(F)c(C(=O)c2c[nH]c3ncc(-c4cncnc4)cc23)c1F`, for which the Activity amounted to 80% in test [3], 81% in test [1] and 3.5% in test [2].
As for `Cc1nc(NC(C)CO)c2c(n1)[nH]c1ccc(O)cc12` (configuration not stated), the Activity turned out to be 95% in test [3], 100% in test [1] and 81% in test [2].
On the same counts, the results for `CCCS(=O)(=O)Nc1ccc(F)c(C(=O)c2c[nH]c3ncc(-c4cccc(OC)c4)cc23)c1F` are 18%, 100% and 23%.
For `CCCS(=O)(=O)Nc1ccc(F)c(C(=O)c2c[nH]c3ncc(-c4cnccn4)cc23)c1F`, the Activity stood at 75% in test [3], 83% in test [1] and 11% in test [2].
On the same counts, the results for `CCCS(=O)(=O)Nc1ccc(F)c(C(=O)c2c[nH]c3ncc(-c4cc5c(cc4Cl)OCCO5)cc23)c1F` are 98%, 97% and 20%.
For `C#Cc1cnc2[nH]cc(C(=O)c3c(F)ccc(NS(=O)(=O)CCC)c3F)c2c1`, in that order: 89%, 100% and 1.4%.
For `CCCS(=O)(=O)Nc1ccc(F)c(C(=O)c2c[nH]c3ncc(-c4cccc(Cl)c4)cc23)c1F`, the Activity amounted to 85% in test [1] and 2.2% in test [2].
Regarding `CCCS(=O)(=O)Nc1ccc(F)c(C(=O)c2c[nH]c3ncc(-c4ccc(OC)cc4)cc23)c1F`, the Activity is 38% in test [3] and 70% in test [1].
For `CCCS(=O)(=O)Nc1cccc(C(=O)c2c[nH]c3ncc(-c4ccc(Cl)cc4)cc23)c1`, in that order: 44% and 100%.
As for `O=C(c1cccc(NS(=O)(=O)Cc2ccccc2)c1F)c1c[nH]c2ncc(-c3ccncc3)cc12`, the Activity amounted to 26% in test [3], 95% in test [1] and 0.95% in test [2].
On the same counts, the results for `CCCS(=O)(=O)Nc1ccc(F)c(C(=O)c2c[nH]c3ncc(-c4cccc(C)c4)cc23)c1F` are 28%, 97% and 0.7%.
As for `CCCS(=O)(=O)Nc1ccc(F)c(C(=O)c2c[nH]c3ncc(-c4cccc(F)c4)cc23)c1F`, the Activity worked out at 45% in test [3], 90% in test [1] and 0.8% in test [2].
As for `CCCC(=O)Nc1ccc(F)c(C(=O)c2c[nH]c3ncc(-c4ccc(Cl)cc4)cc23)c1F`, the Activity stood at 91% in test [3], 94% in test [1] and 78% in test [2].
For `CCCS(=O)(=O)Nc1ccc(F)c(C(=O)c2c[nH]c3ncc(-c4ccc5c(c4)OCCO5)cc23)c1F`, in that order: 84%, 100% and 2.2%.
As for `O=C(c1c(F)ccc(NS(=O)(=O)Cc2ccccc2)c1F)c1c[nH]c2ncc(-c3ccc(Cl)cc3)cc12`, the Activity in test [3] was determined as 94%; in test [1], 100%; in test [2], 30%.
On the same counts, the results for `COCCS(=O)(=O)Nc1ccc(F)c(C(=O)c2c[nH]c3ncc(-c4ccc(Cl)cc4)cc23)c1F` are 100%, 75% and 58%.
On the same counts, the results for `CCCS(=O)(=O)Nc1ccc(F)c(C(=O)c2c[nH]c3ncc(-c4ccc(OC)cc4Cl)cc23)c1F` are 100%, 100% and 18%.
As for `CCCS(=O)(=O)Nc1ccc(F)c(C(=O)c2c[nH]c3ncc(-c4ncccn4)cc23)c1F`, the Activity in test [3] was found to be 92%; in test [1], 90%; in test [2], 39%.
On the same counts, the results for `CCCS(=O)(=O)Nc1ccc(F)c(C(=O)c2c[nH]c3ncc(-c4ccc5c(c4)OCO5)cc23)c1F` are 76%, 90% and 0.45%.
For `CCCS(=O)(=O)Nc1ccc(F)c(C(=O)c2c[nH]c3ncc(-c4ccccc4Cl)cc23)c1F`, in that order: 79%, 100% and 7.6%.
With `CCCS(=O)(=O)Nc1ccc(F)c(C(=O)c2c[nH]c3ncc(-c4ccco4)cc23)c1F`, the Activity was found to be 78% in test [3], 95% in test [1] and 2.1% in test [2].
As to `CCCS(=O)(=O)Nc1ccc(F)c(C(=O)c2c[nH]c3ncc(-c4ccc(OC)cc4OC)cc23)c1F`, the Activity in test [3] was found to be 84%; in test [1] it was 87%; in test [2] it was 1.6%.
As to `Cc1cccc(CS(=O)(=O)Nc2ccc(F)c(C(=O)c3c[nH]c4ncc(-c5ccc(Cl)cc5)cc34)c2F)c1`, the Activity in test [1] turned out to be 100%; in test [2], 64%.
Regarding `O=C(c1cccc(NS(=O)(=O)Cc2ccccc2)c1F)c1c[nH]c2ncc(-c3cc4c(cc3Cl)OCO4)cc12`, the Activity was found to be 66% in test [3], 100% in test [1] and 80% in test [2].
For `O=C(c1c(F)ccc(NS(=O)(=O)Cc2ccc(F)cc2)c1F)c1c[nH]c2ncc(-c3ccc(Cl)cc3)cc12`, the Activity was found to be 100% in test [1] and 61% in test [2].
For `O=C(c1c(F)ccc(NS(=O)(=O)Cc2cccc(F)c2)c1F)c1c[nH]c2ncc(-c3ccc(Cl)cc3)cc12`, in that order: 99% and 36%.
As to `CCCS(=O)(=O)Nc1ccc(F)c(C(=O)c2c[nH]c3ncc(-c4ccc(F)cc4)cc23)c1F`, the Activity in test [3] was 67%; in test [1], 100%; in test [2] it was 0.9%.
Turning to `CS(=O)(=O)Nc1cccc(C(=O)c2c[nH]c3ncc(-c4ccc(Cl)cc4)cc23)c1F`, the Activity is 78% in test [3], 81% in test [1] and 27% in test [2].
Consider `CCS(=O)(=O)Nc1ccc(F)c(C(=O)c2c[nH]c3ncc(-c4ccc(Cl)cc4)cc23)c1F`, for which the Activity in test [3] worked out at 82%; in test [1] it was 89%; in test [2] it was 8.3%.
On the same counts, the results for `CCCCS(=O)(=O)Nc1ccc(F)c(C(=O)c2c[nH]c3ncc(-c4ccc(Cl)cc4)cc23)c1F` are 75%, 100% and 29%.
On the same counts, the results for `CCCS(=O)(=O)Nc1ccc(F)c(C(=O)c2c[nH]c3ncc(-c4ccc(F)cc4Cl)cc23)c1F` are 100%, 100% and 19%.
For `O=C(c1c(F)ccc(NS(=O)(=O)c2ccccc2)c1F)c1c[nH]c2ncc(-c3ccc(Cl)cc3)cc12`, in that order: 83%, 83% and 4.9%.
Consider `CCCS(=O)(=O)Nc1ccc(F)c(C(=O)c2c[nH]c3ncc(-c4ccc(F)cc4F)cc23)c1F`, for which the values for the Activity in test [1] and in test [2] were 93% and 5.9%, respectively.
Consider `O=C(c1cccc(NS(=O)(=O)Cc2ccccc2)c1F)c1c[nH]c2ncc(-c3ccc(Cl)cc3)cc12`, for which the Activity in test [3] worked out at 72%; in test [1], 97%; in test [2], 66%.
On to `CCCS(=O)(=O)Nc1ccc(F)c(C(=O)c2c[nH]c3ncc(-c4cc5c(cc4Cl)OCO5)cc23)c1F`, for which the figures for the Activity in test [3], in test [1] and in test [2] were 99%, 100% and 26%, respectively.
On the same counts, the results for `CCCCCCS(=O)(=O)Nc1ccc(F)c(C(=O)c2c[nH]c3ncc(-c4ccc(Cl)cc4)cc23)c1F` are 99%, 81% and 73%.
`CCCS(=O)(=O)Nc1ccc(F)c(C(=O)c2c[nH]c3ncc(-c4ccccc4F)cc23)c1F`: the Activity was found to be 86% in test [1] and 2.9% in test [2].
For the compound `CCCS(=O)(=O)Nc1ccc(F)c(C(=O)c2c[nH]c3ncc(-c4cccs4)cc23)c1F`, the Activity stood at 48% in test [3], 98% in test [1] and 2.9% in test [2].
For the compound `CS(=O)(=O)Nc1ccc(F)c(C(=O)c2c[nH]c3ncc(-c4ccc(Cl)cc4)cc23)c1F`, the Activity came out at 63% in test [3], 87% in test [1] and 2.6% in test [2].
Turning to `CCCS(=O)(=O)Nc1ccc(F)c(C(=O)c2c[nH]c3ncc(-c4ccc(OC)cc4C)cc23)c1F`, the Activity in test [1] was 97%; in test [2], 13%.
On the same counts, the results for `Cc1ccc(CS(=O)(=O)Nc2ccc(F)c(C(=O)c3c[nH]c4ncc(-c5ccc(Cl)cc5)cc34)c2F)cc1` are 90% and 87%.
For `O=C(c1c(F)ccc(NS(=O)(=O)Cc2ccccc2F)c1F)c1c[nH]c2ncc(-c3ccc(Cl)cc3)cc12`, in that order: 97% and 23%.
